Results from PubChem BioAssay AID248 (DTP/NCI, 2004).
Toxic doses and inconclusive results are not listed. Rule as the data show it: active = T/C of 150% or more; inactive = T/C below 125%.

Test system: L1210 leukemia ip in BDF1 mice, survival T/C
Experiment: NCI In Vivo Anticancer Drug Screen. Data for tumor model L1210 Leukemia (intraperitoneal) in B6D2F1 (BDF1) mice
Conditions: endpoint: mean survival time, higher = longer survival
Outline: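 Survival endpoint. Drug-treated group vs vehicle group, expressed as T divided by C. Tumor passaged by transplantation.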

[1] = dose: 100.0 mg/kg/injection, schedule: Q01DX009 (ip), vehicle: Klucel (hydroxypropylcellulose) (HPC)
[2] = dose: 200.0 mg/kg/injection, schedule: Q01DX009 (ip), vehicle: Klucel (hydroxypropylcellulose) (HPC)
[3] = dose: 100.0 mg/kg/injection, schedule: Q04DX003 (ip), vehicle: saline with Tween-80
[4] = dose: 200.0 mg/kg/injection, schedule: Q04DX003 (ip), vehicle: saline with Tween-80
[5] = dose: 100.0 mg/kg/injection, schedule: Q01DX001 (ip), vehicle: saline
[6] = dose: 200.0 mg/kg/injection, schedule: Q01DX001 (ip), vehicle: saline
[7] = dose: 100.0 mg/kg/injection, schedule: Q01DX001 (ip), vehicle: carboxymethylcellulose (CMC)
[8] = dose: 200.0 mg/kg/injection, schedule: Q01DX001 (ip), vehicle: carboxymethylcellulose (CMC)
[9] = dose: 400.0 mg/kg/injection, schedule: Q01DX001 (ip), vehicle: carboxymethylcellulose (CMC)
[10] = dose: 100.0 mg/kg/injection, schedule: Q04DX003 (ip), vehicle: Klucel (hydroxypropylcellulose) (HPC)
[11] = dose: 200.0 mg/kg/injection, schedule: Q04DX003 (ip), vehicle: Klucel (hydroxypropylcellulose) (HPC)
[12] = dose: 400.0 mg/kg/injection, schedule: Q01DX009 (ip), vehicle: Klucel (hydroxypropylcellulose) (HPC)
[13] = dose: 400.0 mg/kg/injection, schedule: Q04DX003 (ip), vehicle: Klucel (hydroxypropylcellulose) (HPC)
[14] = dose: 100.0 mg/kg/injection, schedule: Q04DX002 (ip), vehicle: Klucel (hydroxypropylcellulose) (HPC)
[15] = dose: 400.0 mg/kg/injection, schedule: Q01DX001 (ip), vehicle: saline
[16] = dose: 100.0 mg/kg/injection, schedule: Q01DX009 (ip), vehicle: saline with Tween-80
[17] = dose: 200.0 mg/kg/injection, schedule: Q01DX009 (ip), vehicle: saline with Tween-80
[18] = dose: 400.0 mg/kg/injection, schedule: Q01DX009 (ip), vehicle: saline with Tween-80
[19] = dose: 400.0 mg/kg/injection, schedule: Q04DX003 (ip), vehicle: saline with Tween-80
[20] = dose: 75.0 mg/kg/injection, schedule: Q01DX001 (ip), vehicle: saline

Measured: T/C

OCC1(c2ccccc2)OC1c1ccccc1 (stereo unspecified)
inactive: dose: 50.0 mg/kg/injection, schedule: Q01DX009 (ip), vehicle: Klucel (hydroxypropylcellulose) (HPC) 95 % of control | dose: 75.0 mg/kg/injection, schedule: Q04DX003 (ip), vehicle: Klucel (hydroxypropylcellulose) (HPC) 102 % of control | [1] 96 % of control | dose: 150.0 mg/kg/injection, schedule: Q04DX003 (ip), vehicle: Klucel (hydroxypropylcellulose) (HPC) 102 % of control | [2] 96 % of control | dose: 300.0 mg/kg/injection, schedule: Q04DX003 (ip), vehicle: Klucel (hydroxypropylcellulose) (HPC) 107 % of control

Cn1ccoc1=NC1CCCCC1
inactive: [3] 96 % of control | [4] 95 % of control

CN1CCN(Cc2c(O)ccc3c2OC(C)(C)C2=C3CCCC2)CC1
inactive: [5] 89 % of control | [6] 98 % of control

O=[N+]([O-])c1ccccc1C/C=C/CCl
inactive: [7] 100 % of control | [8] 96 % of control | [9] 94 % of control

CCCCOC(=O)C(C)OC(=O)CCC (stereo unspecified)
inactive: [1] 102 % of control | [10] 99 % of control | [2] 90 % of control | [11] 107 % of control | [12] 102 % of control | [13] 102 % of control

Nc1cccc(NC(=O)Nc2ccccc2)c1
inactive: dose: 50.0 mg/kg/injection, schedule: Q04DX002 (ip), vehicle: Klucel (hydroxypropylcellulose) (HPC) 105 % of control | [14] 91 % of control

CCc1nnnn1-c1ccc(Br)cc1
inactive: dose: 100.0 mg/kg/injection, schedule: Q01DX001 (ip), vehicle: Klucel (hydroxypropylcellulose) (HPC) 93 % of control | dose: 200.0 mg/kg/injection, schedule: Q01DX001 (ip), vehicle: Klucel (hydroxypropylcellulose) (HPC) 102 % of control | dose: 400.0 mg/kg/injection, schedule: Q01DX001 (ip), vehicle: Klucel (hydroxypropylcellulose) (HPC) 116 % of control

CCOC(=O)/C=C(\C)Nc1ncc(Br)cc1Br
inactive: dose: 100.0 mg/kg/injection, schedule: Q01DX001 (ip), vehicle: saline with Tween-80 92 % of control | dose: 200.0 mg/kg/injection, schedule: Q01DX001 (ip), vehicle: saline with Tween-80 96 % of control | dose: 400.0 mg/kg/injection, schedule: Q01DX001 (ip), vehicle: saline with Tween-80 89 % of control

COc1cc2c(cc1OC)C1CNC(=O)C1C(c1ccccc1)C2 (stereo unspecified)
inactive: dose: 50.0 mg/kg/injection, schedule: Q04DX003 (ip), vehicle: Klucel (hydroxypropylcellulose) (HPC) 103 % of control | [1] 100 % of control | [10] 98 % of control | [2] 102 % of control | [11] 95 % of control | [12] 94 % of control | [13] 98 % of control

C/C=C\C=C\COC(=O)CC(C)C
inactive: dose: 100.0 mg/kg/injection, schedule: Q04DX002 (ip), vehicle: saline 103 % of control | dose: 200.0 mg/kg/injection, schedule: Q04DX002 (ip), vehicle: saline 103 % of control | dose: 400.0 mg/kg/injection, schedule: Q04DX002 (ip), vehicle: saline 103 % of control

O=S1(=O)CCC(O)C1 (stereo unspecified)
inactive: [5] 92 % of control | dose: 100.0 mg/kg/injection, schedule: Q01DX009 (ip), vehicle: saline 93 % of control | [6] 97 % of control | dose: 200.0 mg/kg/injection, schedule: Q01DX009 (ip), vehicle: saline 105 % of control | [15] 100 % of control | dose: 400.0 mg/kg/injection, schedule: Q01DX009 (ip), vehicle: saline 100 % of control

Cc1cc(C(=O)C[n+]2ccccc2)c(CN2C(=O)c3ccccc3C2=O)c(=O)n1C
inactive: dose: 100.0 mg/kg/injection, schedule: Q01DX001 (ip), vehicle: water 102 % of control

N#CCCN(C(=O)Nc1cc(C(F)(F)F)ccc1Cl)C1CCCCC1
inactive: [14] 96 % of control | dose: 200.0 mg/kg/injection, schedule: Q04DX002 (ip), vehicle: Klucel (hydroxypropylcellulose) (HPC) 96 % of control | dose: 400.0 mg/kg/injection, schedule: Q04DX002 (ip), vehicle: Klucel (hydroxypropylcellulose) (HPC) 105 % of control

CN1CCC2CCCCC2C1Cc1ccc(CC2C3CCCCC3CCN2C)cc1 (stereo unspecified)
inactive: dose: 2.5 mg/kg/injection, schedule: Q01DX001 (ip), vehicle: carboxymethylcellulose (CMC) 96 % of control | dose: 5.0 mg/kg/injection, schedule: Q01DX001 (ip), vehicle: carboxymethylcellulose (CMC) 96 % of control

OC12CCCCC13CCC1CCCCC1(O2)O3 (stereo unspecified)
inactive: [16] 98 % of control | [17] 94 % of control | [18] 102 % of control

COc1cc(/C=N\Nc2ccccc2[N+](=O)[O-])cc(OC)c1OC
inactive: [3] 86 % of control | [4] 91 % of control | [19] 89 % of control

CC1=N/C(=N\c2nc3cc(C)c(C)cc3[nH]2)NC(=O)CC1
inactive: [20] 104 % of control

O=[N+]([O-])c1cccc(/C=N/n2cn[nH]c2=S)c1
inactive: [10] 94 % of control | [11] 94 % of control | [13] 96 % of control

COC1CCC=CO1 (stereo unspecified)
inactive: dose: 13.3 mg/kg/injection, schedule: Q01DX Z (ip), vehicle: saline 93 % of control | dose: 20.0 mg/kg/injection, schedule: Q01DX Z (ip), vehicle: saline 105 % of control | dose: 30.0 mg/kg/injection, schedule: Q01DX Z (ip), vehicle: saline 109 % of control

CC1([N+](=O)[O-])COP(=O)(OP2(=O)OCC(C)([N+](=O)[O-])CO2)OC1 (stereo unspecified)
inactive: [7] 108 % of control | [8] 101 % of control | [9] 103 % of control

NC(=O)Cn1cnc2c(N)ncnc21
inactive: [3] 95 % of control | [4] 95 % of control | [19] 101 % of control

O=C(Oc1ccccc1)C(Cl)(Cl)Cl
inactive: dose: 6.25 mg/kg/injection, schedule: Q01DX009 (ip), vehicle: saline 95 % of control | dose: 12.5 mg/kg/injection, schedule: Q01DX009 (ip), vehicle: saline 92 % of control | dose: 25.0 mg/kg/injection, schedule: Q01DX009 (ip), vehicle: saline 89 % of control | dose: 100.0 mg/kg/injection, schedule: Q01DX001 (ip), vehicle: acetone 98 % of control | dose: 100.0 mg/kg/injection, schedule: Q04DX003 (ip), vehicle: acetone 95 % of control | dose: 200.0 mg/kg/injection, schedule: Q01DX001 (ip), vehicle: acetone 90 % of control | dose: 200.0 mg/kg/injection, schedule: Q04DX003 (ip), vehicle: acetone 98 % of control | dose: 400.0 mg/kg/injection, schedule: Q01DX001 (ip), vehicle: acetone 100 % of control

CCCCCCCCCC(F)CCCCCCCC(=O)O (stereo unspecified) (tested in a mixture with another compound)
inactive: [5] 91 % of control | [6] 91 % of control | [15] 95 % of control

CN=C(NCCCOC)c1ccc(NC(=O)Nc2ccc(NC(=O)Nc3ccc(C(=NC)NCCCOC)cc3)cc2)cc1
inactive: dose: 1.87 mg/kg/injection, schedule: Q01DX Z (ip), vehicle: carboxymethylcellulose (CMC) 107 % of control | dose: 3.75 mg/kg/injection, schedule: Q01DX Z (ip), vehicle: carboxymethylcellulose (CMC) 96 % of control | dose: 7.5 mg/kg/injection, schedule: Q01DX Z (ip), vehicle: carboxymethylcellulose (CMC) 104 % of control | dose: 15.0 mg/kg/injection, schedule: Q01DX Z (ip), vehicle: carboxymethylcellulose (CMC) 102 % of control

CC[n+]1c(COCCOc2ccccc2)sc2cc3c(cc21)OCO3
inactive: [5] 101 % of control

Cc1ccc2[nH]c(C)c(C3=CC(=O)c4ccccc4C3=O)c2c1
inactive: dose: 100.0 mg/kg/injection, schedule: Q01DX001 (ip), vehicle: other 97 % of control | dose: 200.0 mg/kg/injection, schedule: Q01DX001 (ip), vehicle: other 92 % of control

O=C(Nc1ccccc1)c1ccccc1C(O)(c1ccccc1)c1ccccn1 (stereo unspecified)
inactive: [16] 95 % of control | [17] 97 % of control | [18] 92 % of control

CCCCCCCC/C=C\CCCCCCCC(=O)NCC[N+]1(C)CCCCC1
inactive: [20] 94 % of control | dose: 150.0 mg/kg/injection, schedule: Q01DX001 (ip), vehicle: saline 97 % of control
